In US20230022796A1 (Merck Patent GmbH, priority 2019, published 2023):
pKd: −log10 of the molar value.

Tests used:
[1] = tested on: CHO cell line producing mAb3; assay: Fed-batch cell performance (viable cell density), clone 3 producing mAb3; assay type: cell-based, Chinese hamster; details: mAb3, feed with 400 μM additive
Experimental: Four different clones of Chinese hamster ovary (CHO) cells expressing three different monoclonal antibodies (mAb) and a fusion protein were tested. Cells were cultivated in spin tubes between 14 and 20 days at 37° C., 5% CO2, and 80% humidity. As starting cell density, 3×10^5 cells/mL in 30 mL Cellvento®4CHO media (pH 7.0±0.1) was used for clone 1 and 2 producing mAb1 and mAb2, respectively (Cellvento® Platform). Cells were cultivated at an agitation rate of 320 rpm and were fed on day 3, 5, 10, 12 and 14 with 3% volume of Cellvento® 4Feed (v/v) and on day 7 with 6% (v/v) of the feed. Clone 3 and 4 producing mAb3 and a fusion protein were inoculated at the same cell density in 30 mL Ex-Cell® Advanced Media (pH 7.2±0.1) while agitation was set to 230 rpm. Clones 3 and 4 were fed with 5% Ex-Cell® Advanced Feed (v/v) on day 3, 5, 7, 10, 12, 14 and 17. […]
The glucose level was maintained above 4 g/L by adding a specific amount of a 400 g/L glucose stock solution on demand to up to 6 g/L during the week and up to 13 g/L over the weekend. Glucose and titer were detected in the supernatant with the bioprocess analyzer CEDEX Bio HT (Roche, Mannheim, Germany) based on spectrophotometric and turbidometric methods. The viable cell density (VCD) and viability were evaluated with a Vi-CELL™ XR 2.04 cell counter (Beckman Coulter, Fullerton, Calif., USA). […]

[2] = tested on: CHO cell line producing mAb1; assay: Glycosylation profile (UPLC-MS of released glycans) of mAb1 from fed-batch; assay type: cell-based, Chinese hamster; details: for reduction of the fucosylation compared to the control: mAb1, same concentration of both additives
Experimental: Glycosylation patterns were analyzed by ultra-performance liquid chromatography coupled to a mass spectrometer (UPLC-MS). The purified antibody was denaturated and the glycans were released from the antibody by digestion with peptide N-glycosidase F (PNGase F) followed by labeling the glycans with the GlycoWorks™ RapiFluor-MS™ N-Glycan Kit according to the manufacturer protocol. For the analysis, an UPLC glycan column (2.1×150 mm) that separated the glycans according to their […] was used. The chromatography was performed at 45° C. using 50 mM ammonium formate (A), pH 4.4 solution and an acetonitrile (B) gradient. In detail, at the beginning the ratio of A:B was 20:80 (0 min) and changed to 27:73 at 3 min and 37:63 at 35 min at a flow rate of 0.5 ml/min. From 36.5 min to 39.5 min only A was used as mobile phase and the flow rate was reduced to 0.2 ml/min. Subsequently, the ratio was changed to 20% A:80% B and the flowrate was increased to 0.5 ml/min at 43.1 min until the end of the process at 55 min. The detection was performed by a fluorescence detector with an excitation wavelength of 265 nm and an emission wavelength of 425 nm. The identification of the glycan structures was performed by MS using positive electro spray ionization (ESI), which was calibrated every 30 s with a standard.
Four different clones of Chinese hamster ovary (CHO) cells expressing three different monoclonal antibodies (mAb) and a fusion protein were tested. Cells were cultivated in spin tubes between 14 and 20 days at 37° C., 5% CO2, and 80% humidity. As starting cell density, 3×10^5 cells/mL in 30 mL Cellvento®4CHO media (pH 7.0±0.1) was used for clone 1 and 2 producing mAb1 and mAb2, respectively (Cellvento® Platform). Cells were cultivated at an agitation of 320 rpm and were fed on day 3, 5, 10, 12 and 14 with 3% volume of Cellvento® 4Feed (v/v) and on day 7 with 6% (v/v) of the feed. Clone 3 and 4 producing mAb3 and a fusion protein were inoculated at the same cell density in 30 mL Ex-Cell® Advanced Media (pH 7.2±0.1) while agitation was set to 230 rpm (Ex-Cell® Platform). Clones 3 and 4 were fed with […] Advanced Feed (v/v) on day 3, 5, 7, 10, 12, 14 and 17. […] The pH of all Cellvento® feeds was adjusted to 7.0±0.1 and Ex-Cell® Feeds were adjusted to 8.5±0.1. The glucose level was maintained above 4 g/L by adding a specific amount of a 400 g/L glucose stock solution on demand to up to 6 g/L during the week and up to 13 g/L over the weekend. Glucose and titer were detected in the supernatant with the bioprocess analyzer CEDEX Bio HT (Roche, Mannheim, Germany).
To investigate the glycosylation profile during the fed-batch experiment samples were centrifugated and antibodies and Fc-fusion proteins were purified from the cell culture supernatant using protein A PhyTips® (PhyNexus Inc, San Jose, Calif.). Glycosylation patterns were analyzed as described by ultra-performance liquid chromatography coupled to a mass spectrometer (UPLC-MS) using the GlycoWorks™ RapiFluor-MS™ N-Glycan Kit.
Glycosylation profile on day 12 was visualized since harvest of recombinant produced proteins on day 12 is common. Quantification of the glycans was obtained using the relative peak area of the fluorescence signal. Almost all peaks were assigned to glycan structures according to their mass. Unknown glycan structures and signals without mass detection were summarized as unknown species (not shown). Four different clones of Chinese hamster ovary (CHO) cells expressing three different monoclonal antibodies (mAb) and a fusion protein were tested. […] The known positive control achieved a […] level on day 12 by increasing the afucosylation to 78%. The same amount of afucosylation compared to the known fucose-analogue acetylated 2F-Fucose was only achieved by clone 3 expressing mAb3 leading to about […] on day 12 (FIG. 8 C). […]

[3] = molecular target: FcγRIIIa V176; assay: Surface plasmon resonance (Biacore) binding of mAb3 from treated cultures to FcγRIIIa
Experimental: Binding of samples after 5-ThioFuc treatment was investigated by surface plasmon resonance technology using a Biacore T200 system (GE Healthcare, Uppsala, Sweden). The analysis temperature was set to 25° C. and sample compartment temperature to 15° C. […] The anti-His antibody was further used to capture His-tagged FcγRIIIa V176 ([…]) from AcroBiosystems (Newark, Del., USA).
Binding was recorded continuously, while unspecific binding and injection artefacts were subtracted automatically. Single-cycle kinetics were used with a dissociation time of 600 s at a flow rate of 30 μL/min. Data collection rate was performed at 10 Hz. Following each experiment, both flow cells were regenerated for 30 s with 10 mM glycine-HCl pH 1.5 according to kit instructions. Data of three technical and two biological replicates were fitted with a 1:1 binding model. The global dissociation constant KD was determined from the ratio of the kinetic rate constants for dissociation (kd) and association (ka) values. Data are presented in Table 1 as fold change compared to the control.

pKd ([3]; mAb3 from culture fed with 50 μM additive, day 5): 7.07
pKd ([3]; mAb3 from culture fed with 50 μM additive, day 12): 7.20
pKd ([3]; mAb3 from culture fed with 50 μM additive, day 14): 7.21
pKd ([3]; mAb3 from culture fed with 200 μM additive, day 5): 7.28
pKd ([3]; mAb3 from culture fed with 200 μM additive, day 12): 7.40
pKd ([3]; mAb3 from culture fed with 200 μM additive, day 14): 7.55
pKd ([3]; mAb3 from culture fed with 400 μM additive, day 5): 7.46
pKd ([3]; mAb3 from culture fed with 400 μM additive, day 12): 7.49
pKd ([3]; mAb3 from culture fed with 800 μM additive, day 5): 7.40
SMILES: C[C@@H]1SC(O)[C@@H](O)[C@H](O)[C@@H]1O (some centres unmarked)
reduced VCD (area under the curve until day 17, compared to the control) [1]: about 13%
core-fucosylated glycans ([2]; mAb1, 400 μM additive, day 12): about 26%
reduction of the fucosylation compared to the control ([2]; day 7): 64%
reduction of the fucosylation compared to the control ([2]; day 10): 68%
reduction of the fucosylation compared to the control ([2]; day 12): 67%
